{"source": "patent US9233912B2", "about": "“Devices and methods for crystallization” (Massachusetts Institute of Technology, priority 2013, dated 2016)", "key": {"[1]": {"experiment": "Nucleator only experiments, in-line FBRM chord length distribution", "type": "physicochemical", "settings": "FBRM at nucleator outlet, residence time 7.4 s and 10.3 s", "excerpt": "In some embodiments, Focused Beam Reflectance Measurement (FBRM) or similar technique may be used to obtain characteristic size information. FBRM, in some embodiments, provides an ability to measure objects (e.g., crystals) in suspensions, e.g., at full process concentration, without the need for sample extraction and sample preparation. In some embodiments, FBRM method of measurement may be used which is based on a measurement of Chord Length Distribution that simultaneously tracks the rate and degree of change in particle count and mean chord length. As used herein, the term “chord length” refers to the length of a line segment passing across a portion of a projection of an object on a two-dimensional plane, and whose end points lie on the edge of the projection. The term “mean chord length” refers to the mean length of multiple chords, e.g., multiple randomly orientated chords. Methods for measuring mean particle count and mean chord length are well known in the art. See, […]. Particle Size Measurements: Fundamentals, Practice, Quality. […] Copyright 2009 Springer Science+Business Media B.V., and references cited therein."}, "[2]": {"experiment": "Integrated nucleator-tubular crystallizer experiment, crystal size by microscopic analysis", "type": "physicochemical", "method": "(§1) To perform the analysis, a drop of solution or 1 mg of crystals dispersed in a few drops of mineral oil was first imaged using a 5× objective.\nThese experiments involved connecting the generator to a tubular crystallizer for crystal growth. This integrated nucleator-crystallizer experiment was conducted with a 49 mL tubular coiled crystallizer (Masterflex® L/S®, Chem-Durance® Bio tubing, ID=3.2 mm, Length=20 ft) using 1.54% acetaminophen solution. During the experiment, relatively small crystals generated in the nucleator were pumped into the tubular crystallizer at the same flow rate as the nuclei generator. The small crystals then grew in the crystallizer for a fixed residence time before the crystals were collected by vacuum filtration, as shown in FIG. 2. Two experiments at flow rates of 14.2 and 11.3 mL/min were conducted. The particle size distributions of the crystals were determined by microscopic analysis (Nikon Eclipse ME600).\nThe nuclei generator can be integrated into crystallization processes in which the production of crystals of specific size distribution is desired (See, e.g., FIGS. 1B, 1C, 2, 12). In some embodiments, with the continuous generation of nuclei, the nucleation and growth events were decoupled. In this case, nucleation was triggered in the nucleator, while growth continued in the crystallizer. Multiple integrated nucleator—tubular crystallizer experiments were conducted that illustrate this process."}, "[3]": {"settings": "w/w = g chemical/g solution; cited from earlier work"}, "[4]": {"method": "as §1"}, "[5]": {"settings": "Seeded Crystallization", "method": "as §1\nA continuous crystallization process with seeding was evaluated for comparison with an integrated nucleator-crystallizer device. A schematic diagram of the seeded crystallization experiment is depicted in FIG. 13. Seed crystals (nuclei) were obtained from antisolvent crystallization of glycine (to generate small crystals). Crystals obtained from antisolvent crystallization were sieved through a series of sieves with openings of 90, 63, and 45 μm. Seeds were collected from the 45 μm sieve.\nFor the seeded crystallization experiment, the crystallizer was first filled with the feed solution. Once filled, the process was seeded by pumping (50 mL/min) a suspension of 0.05 g seed in 25 mL feed solution into the crystallizer. After seeding, the crystallization process proceeded with continuous input of clear feed solution at 50 mL/min. Glycine crystals were collected by vacuum filtration at the crystallizer outlet. Except for the seeding procedure, the other experimental conditions for the seeded crystallization experiment were kept identical to the integrated nucleator-crystallizer experiment of Example 4.\nFeed solution concentration: 24% (20% above saturation)\nResidence time in crystallizer (100 mL): 2 min\nCrystallizer holding temperature: 28° C.\nThe data were analyzed with crystals collected between 4-5 residence times (RT) when the device was at steady state.\nTo investigate the feasibility of the seeded experiment, a second experiment was conducted at lower crystallizer temperature (higher supersaturation that could potentially improve crystal growth rate)."}, "[6]": {"experiment": "Integrated nucleator-crystallizer (Coflore crystallizer) experiment, crystal size", "settings": "for d0.1 / d0.5 / d0.9: Integrated nucleator crystallization"}}, "note": "Read-outs that look alike come from different tables or passages of the source.", "data": [{"smiles": "CC(=O)Nc1ccc(O)cc1", "note": "[Acetaminophen, acetaminophen]", "values": [{"measurement": "span (D (0.9)-D (0.1)) of chord length distribution", "setting": "[1]", "result": "≈ 20 μm"}, {"measurement": "average growth rate inside the nucleator", "setting": "[2]; flow rate 11.31 mL/min", "result": "1.47×10^−7 m/s"}, {"measurement": "mean size of crystals leaving the nucleator", "setting": "[2]; flow rate 11.31 mL/min", "result": 6.7, "unit": "μm"}, {"measurement": "mean size of crystals after tubular crystallizer", "setting": "[2]; flow rate 11.31 mL/min, after 4.3 min in the tubular crystallizer", "result": 13.5, "unit": "μm"}, {"measurement": "average growth rate inside the crystallizer", "setting": "[2]; flow rate 11.31 mL/min, tubular crystallizer", "result": "2.62×10^−7 m/s"}, {"measurement": "mean size of small crystals produced", "setting": "[2]; integrated nucleator and tubular crystallizer, FIG. 9", "result": 12, "unit": "μm"}, {"measurement": "Saturation concentration at 25° C. (Cs)", "setting": "[3]", "result": "1.48^16 % w/w"}]}, {"smiles": "NCC(=O)O", "note": "[Glycine, glycine]", "values": [{"measurement": "size below which 90% of the nuclei lie", "setting": "[4]; 21% glycine solution, 30 s residence time, nucleator only", "result": "less than 12.28 μm"}, {"measurement": "coefficient of variation (CV) of nuclei size", "setting": "[4]; 21% glycine solution, three residence times", "result": "~1"}, {"measurement": "size of nuclei obtained (mostly)", "setting": "[4]; 21% glycine solution, three residence times (30 s, 2 min, 3.5 min)", "result": "less than 20 μm"}, {"measurement": "mean size of small crystals generated with the nucleator", "setting": "[4]; glycine experiments, nucleator device", "result": "up to 14 μm"}, {"measurement": "d0.1", "setting": "[5]; Run 1 (Tcryst = 28° C.)", "result": 6.3, "unit": "μm"}, {"measurement": "d0.5", "setting": "[5]; Run 1 (Tcryst = 28° C.)", "result": 14.6, "unit": "μm"}, {"measurement": "d0.9", "setting": "[5]; Run 1 (Tcryst = 28° C.)", "result": 44.6, "unit": "μm"}, {"measurement": "d0.1", "setting": "[5]; Run 2 (Tcryst = 25° C.)", "result": 7.4, "unit": "μm"}, {"measurement": "d0.5", "setting": "[5]; Run 2 (Tcryst = 25° C.)", "result": 28.8, "unit": "μm"}, {"measurement": "d0.9", "setting": "[5]; Run 2 (Tcryst = 25° C.)", "result": 90.3, "unit": "μm"}, {"measurement": "d0.1", "setting": "[5]; Seed", "result": 2.4, "unit": "μm"}, {"measurement": "d0.5", "setting": "[5]; Seed", "result": 10.3, "unit": "μm"}, {"measurement": "d0.9", "setting": "[5]; Seed", "result": 50.8, "unit": "μm"}, {"measurement": "Saturation concentration at 25° C. (Cs)", "setting": "[3]", "result": "20^15 % w/w"}, {"measurement": "average size of nuclei upon leaving the nucleator", "setting": "[6]; 24% solution, 50 mL/min, approx. 10 s in nucleator", "result": 14, "unit": "μm"}, {"measurement": "average size of crystals from Coflore crystallizer", "setting": "[6]; 24% solution, 50 mL/min, approx. 2 minutes in crystallizer, 28° C.", "result": 48, "unit": "μm"}, {"measurement": "d0.1", "setting": "[6]; Coflore", "result": 13.9, "unit": "μm"}, {"measurement": "d0.5", "setting": "[6]; Coflore", "result": 34.1, "unit": "μm"}, {"measurement": "d0.9", "setting": "[6]; Coflore", "result": 91.9, "unit": "μm"}, {"measurement": "d0.1", "setting": "[6]; Nucleator", "result": 2.4, "unit": "μm"}, {"measurement": "d0.5", "setting": "[6]; Nucleator", "result": 8.8, "unit": "μm"}, {"measurement": "d0.9", "setting": "[6]; Nucleator", "result": 27.2, "unit": "μm"}]}]}
